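Cultured in 96-well plates, cells were exposed to test compound for 48 hours across five concentrations. The concentration for 50% growth inhibition is given as GI50. At the TGI there is no net growth.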
Key:
Assay in all cases: growth of human tumour cells (NCI), 48 h; in the data active = GI50 below about 0.43 µM; inactive = the rest
SNB-75 CNS = system: SNB-75 CNS
RPMI-8226 leukemia = system: RPMI-8226 leukemia
PC-3 prostate = system: PC-3 prostate
U251 CNS = system: U251 CNS
SNB-19 CNS = system: SNB-19 CNS
SK-MEL-5 melanoma = system: SK-MEL-5 melanoma
BT-549 breast = system: BT-549 breast
K-562 leukemia = system: K-562 leukemia
OVCAR-3 ovarian = system: OVCAR-3 ovarian
SF-295 CNS = system: SF-295 CNS
RXF 393 renal = system: RXF 393 renal
UACC-62 melanoma = system: UACC-62 melanoma
DU-145 prostate = system: DU-145 prostate
COLO 205 colon = system: COLO 205 colon
SW-620 colon = system: SW-620 colon
HOP-92 NSCLC = system: HOP-92 NSCLC
MCF7 breast = system: MCF7 breast
MOLT-4 leukemia = system: MOLT-4 leukemia
MDA-MB-231 breast = system: MDA-MB-231 breast
NCI-H460 lung = system: NCI-H460 lung
M14 melanoma = system: M14 melanoma
SK-MEL-28 melanoma = system: SK-MEL-28 melanoma
NCI/ADR-RES ovarian = system: NCI/ADR-RES ovarian
HCT-116 colon = system: HCT-116 colon
SK-OV-3 ovarian = system: SK-OV-3 ovarian
HT29 colon = system: HT29 colon
ACHN renal = system: ACHN renal
KM12 colon = system: KM12 colon
MDA-MB-435 = system: MDA-MB-435
MALME-3M melanoma = system: MALME-3M melanoma
HCC-2998 colon = system: HCC-2998 colon
SK-MEL-2 melanoma = system: SK-MEL-2 melanoma
NCI-H522 lung = system: NCI-H522 lung
A498 renal = system: A498 renal
IGROV1 ovarian = system: IGROV1 ovarian
UACC-257 melanoma = system: UACC-257 melanoma
SF-268 CNS = system: SF-268 CNS
A549 NSCLC = system: A549 NSCLC
UO-31 renal = system: UO-31 renal
TK-10 renal = system: TK-10 renal
OVCAR-5 ovarian = system: OVCAR-5 ovarian
786-0 renal = system: 786-0 renal
HCT-15 colon = system: HCT-15 colon
NCI-H226 lung = system: NCI-H226 lung
OVCAR-4 ovarian = system: OVCAR-4 ovarian
EKVX NSCLC = system: EKVX NSCLC
NCI-H23 lung = system: NCI-H23 lung
SN12C renal = system: SN12C renal
HOP-62 NSCLC = system: HOP-62 NSCLC
OVCAR-8 ovarian = system: OVCAR-8 ovarian
HL-60(TB) leukemia = system: HL-60(TB) leukemia
SF-539 CNS = system: SF-539 CNS
CCRF-CEM leukemia = system: CCRF-CEM leukemia
CAKI-1 renal = system: CAKI-1 renal
T-47D breast = system: T-47D breast
SR leukemia = system: SR leukemia

O=[N+]([O-])c1ccc(OCc2nnc(CCCCCCCCc3nnc(COc4ccc([N+](=O)[O-])cc4)o3)o2)cc1
83.3 µM: TGI (RXF 393 renal)
> 100 µM: TGI (SNB-75 CNS) | TGI (RPMI-8226 leukemia) | TGI (PC-3 prostate) | TGI (U251 CNS) | TGI (SNB-19 CNS) | TGI (SK-MEL-5 melanoma) | TGI (BT-549 breast) | TGI (K-562 leukemia) | TGI (OVCAR-3 ovarian) | TGI (SF-295 CNS) | TGI (UACC-62 melanoma) | TGI (DU-145 prostate) | TGI (COLO 205 colon) | TGI (SW-620 colon) | TGI (HOP-92 NSCLC) | TGI (MCF7 breast) | TGI (MOLT-4 leukemia) | TGI (MDA-MB-231 breast) | TGI (NCI-H460 lung) | TGI (M14 melanoma) | TGI (SK-MEL-28 melanoma) | TGI (NCI/ADR-RES ovarian) | TGI (HCT-116 colon) | TGI (SK-OV-3 ovarian) | TGI (HT29 colon) | TGI (ACHN renal) | TGI (KM12 colon) | TGI (MDA-MB-435) | TGI (MALME-3M melanoma) | TGI (HCC-2998 colon) | TGI (SK-MEL-2 melanoma) | TGI (NCI-H522 lung) | TGI (A498 renal) | TGI (IGROV1 ovarian) | TGI (UACC-257 melanoma) | TGI (SF-268 CNS) | TGI (A549 NSCLC) | TGI (UO-31 renal) | TGI (TK-10 renal) | TGI (OVCAR-5 ovarian) | TGI (786-0 renal) | TGI (HCT-15 colon) | TGI (NCI-H226 lung) | TGI (OVCAR-4 ovarian) | TGI (EKVX NSCLC) | TGI (NCI-H23 lung) | TGI (SN12C renal)

COc1ccc2[nH]c3c(C)c4ccnc(NCCCN(C)CCCNc5ccc([N+](=O)[O-])c6[nH]c7ccccc7c(=O)c56)c4c(C)c3c2c1
1.46 µM: TGI (SK-MEL-2 melanoma)
1.2 µM: TGI (OVCAR-3 ovarian)
1.42 µM: TGI (SNB-19 CNS)
0.0783 µM: TGI (A549 NSCLC)
0.68 µM: TGI (HCT-15 colon)
4.41 µM: TGI (K-562 leukemia)
2.21 µM: TGI (UO-31 renal)
0.726 µM: TGI (SF-539 CNS)
1.11 µM: TGI (OVCAR-8 ovarian)
0.0954 µM: TGI (MCF7 breast)
1.26 µM: TGI (OVCAR-5 ovarian)
0.822 µM: TGI (NCI-H522 lung)
0.568 µM: TGI (HCC-2998 colon)
4.12 µM: TGI (CCRF-CEM leukemia)
1.06 µM: TGI (HOP-62 NSCLC)
1.43 µM: TGI (KM12 colon)
0.755 µM: TGI (IGROV1 ovarian)
0.0678 µM: TGI (NCI-H460 lung)
0.988 µM: TGI (M14 melanoma)
50 µM: TGI (RPMI-8226 leukemia) | TGI (HL-60(TB) leukemia)
1.81 µM: TGI (MDA-MB-231 breast)
0.648 µM: TGI (ACHN renal)
1.21 µM: TGI (PC-3 prostate)
0.989 µM: TGI (MOLT-4 leukemia)
1.27 µM: TGI (DU-145 prostate)
0.964 µM: TGI (EKVX NSCLC)
0.107 µM: TGI (HT29 colon)

CCCN1CCN(c2ccc3nc(-c4ccc5nc(-c6ccc(C(F)(F)F)cc6)[nH]c5c4)[nH]c3c2)CC1
3.22 µM: TGI (NCI-H23 lung)
> 100 µM: TGI (NCI/ADR-RES ovarian)
3.36 µM: TGI (DU-145 prostate) | TGI (OVCAR-5 ovarian)
3.33 µM: TGI (EKVX NSCLC)
inactive: GI50 (SNB-75 CNS) 1.5 µM | GI50 (SK-MEL-5 melanoma) 1.77 µM | GI50 (CAKI-1 renal) 1.76 µM | GI50 (BT-549 breast) 1.75 µM | GI50 (OVCAR-3 ovarian) 1.65 µM | GI50 (SF-295 CNS) 1.66 µM | GI50 (UACC-62 melanoma) 1.66 µM | GI50 (HOP-62 NSCLC) 1.56 µM | GI50 (DU-145 prostate) 1.9 µM | GI50 (COLO 205 colon) 1.52 µM | GI50 (MOLT-4 leukemia) 1.87 µM | GI50 (MDA-MB-231 breast) 1.98 µM | GI50 (M14 melanoma) 1.48 µM | GI50 (SK-MEL-28 melanoma) 1.78 µM | GI50 (NCI/ADR-RES ovarian) 6.46 µM | GI50 (HCT-116 colon) 1.38 µM | GI50 (ACHN renal) 1.6 µM | GI50 (KM12 colon) 1.78 µM | GI50 (MDA-MB-435) 1.86 µM | GI50 (MALME-3M melanoma) 1.35 µM | GI50 (HCC-2998 colon) 1.89 µM | GI50 (SK-MEL-2 melanoma) 1.92 µM | GI50 (A498 renal) 1.87 µM | GI50 (UACC-257 melanoma) 1.85 µM | GI50 (SF-268 CNS) 1.88 µM | GI50 (OVCAR-5 ovarian) 1.93 µM | GI50 (786-0 renal) 1.78 µM | GI50 (HL-60(TB) leukemia) 2 µM | GI50 (SF-539 CNS) 1.77 µM | GI50 (OVCAR-4 ovarian) 1.75 µM | GI50 (EKVX NSCLC) 1.87 µM | GI50 (NCI-H23 lung) 1.71 µM
3.24 µM: TGI (COLO 205 colon)
3.1 µM: TGI (SF-295 CNS)
3.62 µM: TGI (MOLT-4 leukemia)
3.2 µM: TGI (CAKI-1 renal) | TGI (BT-549 breast) | TGI (SF-539 CNS)
3.56 µM: TGI (SF-268 CNS)
3.47 µM: TGI (MDA-MB-435)
2.93 µM: TGI (SNB-75 CNS)
3.25 µM: TGI (SK-MEL-28 melanoma)
3.58 µM: TGI (SK-MEL-2 melanoma)
3.46 µM: TGI (HCC-2998 colon)
3.48 µM: TGI (SK-MEL-5 melanoma)
3.52 µM: TGI (MDA-MB-231 breast)
3.76 µM: TGI (HL-60(TB) leukemia)
3.23 µM: TGI (UACC-62 melanoma)
2.71 µM: TGI (HCT-116 colon)
3.27 µM: TGI (786-0 renal)
2.96 µM: TGI (ACHN renal)
3.77 µM: TGI (A498 renal)
2.88 µM: TGI (M14 melanoma)
3.07 µM: TGI (OVCAR-3 ovarian)
3.15 µM: TGI (HOP-62 NSCLC)
3.44 µM: TGI (OVCAR-4 ovarian)
2.77 µM: TGI (MALME-3M melanoma)
3.57 µM: TGI (UACC-257 melanoma)
3.32 µM: TGI (KM12 colon)

N#Cc1c(-c2ccc(Cl)cc2)cc(-c2ccc(Nc3ccnc4cc(Cl)ccc34)cc2)nc1N
> 100 µM: TGI (SNB-75 CNS) | TGI (RPMI-8226 leukemia) | TGI (PC-3 prostate) | TGI (U251 CNS) | TGI (SNB-19 CNS) | TGI (CAKI-1 renal) | TGI (BT-549 breast) | TGI (K-562 leukemia) | TGI (OVCAR-3 ovarian) | TGI (SF-295 CNS) | TGI (RXF 393 renal) | TGI (UACC-62 melanoma) | TGI (HOP-62 NSCLC) | TGI (DU-145 prostate) | TGI (COLO 205 colon) | TGI (SW-620 colon) | TGI (HOP-92 NSCLC) | TGI (MDA-MB-231 breast) | TGI (NCI-H460 lung) | TGI (T-47D breast) | TGI (M14 melanoma) | TGI (SK-MEL-28 melanoma) | TGI (NCI/ADR-RES ovarian) | TGI (HCT-116 colon) | TGI (SR leukemia) | TGI (SK-OV-3 ovarian) | TGI (ACHN renal) | TGI (KM12 colon) | TGI (MDA-MB-435) | TGI (MALME-3M melanoma) | TGI (HCC-2998 colon) | TGI (SK-MEL-2 melanoma) | TGI (NCI-H522 lung) | TGI (A498 renal) | TGI (IGROV1 ovarian) | TGI (SF-268 CNS) | TGI (A549 NSCLC) | TGI (UO-31 renal) | TGI (OVCAR-8 ovarian) | TGI (TK-10 renal) | TGI (OVCAR-5 ovarian) | TGI (786-0 renal) | TGI (HCT-15 colon) | TGI (NCI-H226 lung) | TGI (HL-60(TB) leukemia) | TGI (SF-539 CNS) | TGI (OVCAR-4 ovarian) | TGI (EKVX NSCLC) | TGI (NCI-H23 lung)
